According to patent US8710252B2, “Hepodxilin analog enantiomers” (priority 2006, dated 2014):
Entries after “also recorded” stand apart in the source; their conditions may differ.

Target: T1, Ga14-DBD-PPAR gamma-LBD fusion protein (Homo sapiens, UniProt P37231)
T1 construct: expressed in transfected cells; host or cells: mouse embryonic fibroblasts (MEFs) or ME3 cells
T1 sequence (P37231 238-503 limits assumed): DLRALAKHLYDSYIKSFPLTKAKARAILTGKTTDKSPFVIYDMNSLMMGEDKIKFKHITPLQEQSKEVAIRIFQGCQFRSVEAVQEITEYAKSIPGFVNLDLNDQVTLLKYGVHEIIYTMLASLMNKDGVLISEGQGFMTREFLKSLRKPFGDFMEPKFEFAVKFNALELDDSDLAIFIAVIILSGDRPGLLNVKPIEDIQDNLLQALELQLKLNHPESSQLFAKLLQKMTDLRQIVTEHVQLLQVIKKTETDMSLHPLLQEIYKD
Assay: PPAR gamma transactivation assay (Gal4-PPAR gamma LBD / UASx4-TK-luc reporter)
Format: cell-based
Description: The UASx4-TK-luc reporter construct (where UAS refers to “upstream activator sequence”) contains four Ga14-responsive elements. The plasmid Ga14-PPAR gammaLBD encodes a Ga14-DBD-PPAR gamma-LBD fusion protein (i.e. the DNA-binding domain, DBD, of Ga14 fused to the ligand-binding domain, LBD, of PPAR gamma) capable of transactivating the UASx4-TK-luc reporter plasmid by binding to the UAS. The CMV-beta-galactosidase plasmid (where CMV is cytomegalovirus) was used for normalization of experimental values.
The cells were replated, typically in 24 well plates, so that at the time of transfection the cells were 50-70% confluent.
Briefly, per well in a 24 well plate, UASx4TKIuc (0.2 microg) Ga14-PPAR gammaLBD (or pM-hPPAR gamma-LBD; 0.1 microg) and CMV-beta-galactosidase (0.05 microg) in 30 μL DMEM (free of serum and antibiotics) was mixed with 30 microL DMEM (free of serum and antibiotics) containing 1 microL metafectenein. The mixture was incubated at room temperature for 20 min to allow formation of nucleic acid-lipid complexes and then approximately 60 micros was added to each well containing the 50-70% confluent cells. […] Cells were harvested after 12-24 hours and luciferase and beta-galactosidase activities were measured according to standard protocols.
Each experiment was carried out with triplicate samples with 0.1, 1 or 10 microM racemate or purified enantiomer.

CCCCC/C=C\CC1CC1/C=C/C(O)C/C=C\CCCC(=O)OC (stereo not drawn) [Compound E, 8R-hydroxy-11S,12S-cyclopropyl-eicosa-5Z,9E,14Z-trienoic acid methyl ester]
PPAR Activation as % of positive control (Avandia) (Experiment 1, 0.1 microM): 5 +/− 1 % of positive control (Avandia)
PPAR Activation as % of positive control (Avandia) (Experiment 1, 1 microM): 11 +/− 1 % of positive control (Avandia)
PPAR Activation as % of positive control (Avandia) (Experiment 1, 10 microM): 55 +/− 8 % of positive control (Avandia)
PPAR Activation as % of positive control (Avandia) (Experiment 2, 0.1 microM): 4 +/− 1 % of positive control (Avandia)
PPAR Activation as % of positive control (Avandia) (Experiment 2, 1 microM): 4 +/− 1 % of positive control (Avandia)
PPAR Activation as % of positive control (Avandia) (Experiment 2, 10 microM): 14 +/− 2 % of positive control (Avandia)
PPAR Activation as % of positive control (Avandia) (Experiment 3, 0.1 microM): 7 +/− 3 % of positive control (Avandia)
PPAR Activation as % of positive control (Avandia) (Experiment 3, 1 microM): 11 +/− 2 % of positive control (Avandia)
PPAR Activation as % of positive control (Avandia) (Experiment 3, 10 microM): 27 +/− 7 % of positive control (Avandia)

CCCCC/C=C\C[C@@H]1C[C@H]1/C=C/[C@@H](O)C/C=C\CCCC(=O)OC [Compound F, 8S-hydroxy-11R,12R-cyclopropyl-eicosa-5Z,9E,14Z-trienoic acid methyl ester]
PPAR gamma transactivation, result in words: significantly more activity than Compound E or the racemic mixture of PBT-1; also recorded: significantly better PPAR gamma transactivation activity; also recorded: higher fold PPAR gamma transactivation than compound E or the PBT-1 racemic mixture
PPAR Activation as % of positive control (Avandia) (Experiment 1, 0.1 microM): 7 +/− 1 % of positive control (Avandia)
PPAR Activation as % of positive control (Avandia) (Experiment 1, 1 microM): 12 +/− 7 % of positive control (Avandia)
PPAR Activation as % of positive control (Avandia) (Experiment 1, 10 microM): 92 +/− 7 % of positive control (Avandia)
PPAR Activation as % of positive control (Avandia) (Experiment 2, 0.1 microM): 5 +/− 1 % of positive control (Avandia)
PPAR Activation as % of positive control (Avandia) (Experiment 2, 1 microM): 5 +/− 5 % of positive control (Avandia)
PPAR Activation as % of positive control (Avandia) (Experiment 2, 10 microM): 69 +/− 12 % of positive control (Avandia)
PPAR Activation as % of positive control (Avandia) (Experiment 3, 0.1 microM): 8 +/− 2 % of positive control (Avandia)
PPAR Activation as % of positive control (Avandia) (Experiment 3, 1 microM): 18 +/− 5 % of positive control (Avandia)
PPAR Activation as % of positive control (Avandia) (Experiment 3, 10 microM): 78 +/− 34 % of positive control (Avandia)

CCCCC/C=C\CC1CC1/C=C/C(O)C/C=C\CCCC(=O)OC (stereo not shown) [PBT-1, 8-hydroxy-11,12-cyclopropyl-eicosa-5Z,9E,14Z-trienoic acid methyl ester, reference compound]
PPAR Activation as % of positive control (Avandia) (10 microM racemate, Table 3): 21 +/− 2 % of positive control (Avandia)
PPAR Activation as % of positive control (Avandia) (Experiment 1, 0.1 microM): 17 +/− 2 % of positive control (Avandia)
PPAR Activation as % of positive control (Avandia) (Experiment 1, 1 microM): 57 +/− 6 % of positive control (Avandia)
PPAR Activation as % of positive control (Avandia) (Experiment 2, 0.1 microM): 7 +/− 1 % of positive control (Avandia)
PPAR Activation as % of positive control (Avandia) (Experiment 2, 1 microM): 35 +/− 5 % of positive control (Avandia)
PPAR Activation as % of positive control (Avandia) (Experiment 3, 0.1 microM): 6 +/− 2 % of positive control (Avandia)
PPAR Activation as % of positive control (Avandia) (Experiment 3, 1 microM): 34 +/− 2 % of positive control (Avandia)
PPAR Activation as % of positive control (Avandia) (Experiment 3, 10 microM): 58 +/− 12 % of positive control (Avandia)

CCCCC/C=C\CC1CC1/C=C/C(O)C/C=C\CCCC(=O)O (stereo not shown) [PBT-01, 8-hydroxy-11,12-cyclopropyl-eicosa-5Z,9E,14Z-trienoic acid, reference compound]
PPAR gamma transactivation, result in words: active
PPAR Activation as % of positive control (Avandia) (10 microM racemate, Table 3): 16 +/− 4 % of positive control (Avandia)

CCCCC/C=C\CC1CC1/C=C/C(O)C/C=C\CCCC(=O)OC (stereo not shown) [PBT-2, 8-hydroxy-11,12-cyclopropyl-eicosa-5Z,9E,14Z-trienoic acid methyl ester, reference compound]
PPAR Activation as % of positive control (Avandia) (10 microM racemate, Table 3): 27 +/− 5 % of positive control (Avandia)

CCCCC/C=C\CC1CC1/C=C/C(O)C/C=C\CCCC(=O)O (stereo not shown) [PBT-02, 8-hydroxy-11,12-cyclopropyl-eicosa-5Z,9E,14Z-trienoic acid, reference compound]
PPAR gamma transactivation, result in words: active
PPAR Activation as % of positive control (Avandia) (10 microM racemate, Table 3): 17 +/− 2 % of positive control (Avandia)

CCCCC/C=C\CC1CC1C(O)/C=C\C/C=C\CCCC(=O)O (stereo not shown) [PBT-03, 10-hydroxy-11,12-cyclopropyl-eicosa-5Z,8Z,14Z-trienoic acid, reference compound]
PPAR gamma transactivation, result in words: active
PPAR Activation as % of positive control (Avandia) (10 microM racemate, Table 3): 14 +/− 4 % of positive control (Avandia)
